{"source": "patent US20230293562A1", "about": "“[…] COMBINATION OF GALNAC-OLIGO[…] AND SAPONIN, AND USES THEREOF” (SAPREME TECHNOLOGIES B.V., priority 2020, published 2023)", "assay_type_in_all_cases": "cell-based", "key": {"[1]": {"tested_on": "ApoB", "assay": "ApoB RNA expression analysis (qPCR) in mouse primary hepatocytes", "details": "72 hrs incubation", "procedure": "(§1) RNA from cells was isolated using TRI Reagent® Solution (Thermo Scientific) according to the manufacturer’s instruction. Conversion into cDNA was performed using iScript™ cDNA Synthesis Kit (BioRad) using standard protocols. ApoB expression levels and levels of specific hepatocyte housekeeping genes were determined using quantitative real-time PCR assays (qRT-PCR) using iTaq™ Universal SYBR® Green Supermix (BioRad) and the Light Cycler 480 (Roche Diagnostics, Rotkreuz, Switzerland) with specific DNA primers, listed in Table A4 (murine) and Table A2 (human). Analysis was done by the ΔCt method to determine ApoB expression relative to 2 hepatocyte-specific housekeeping control mRNAs. Each analysis reaction was performed in triplicate.\nCryopreserved primary mouse hepatocytes ([…] Cell Culture Technology GmbH, Germany) were thawed in hepatocyte thawing media (HTM, […] Cell Culture Technology GmbH, Germany) and washed 1x with hepatocyte wash media (HWM, […] Cell Culture Technology GmbH, Germany). Cells were re-suspended in hepatocyte plating media (HPM Cryo, […] Cell Culture Technology GmbH, Germany) at a density of approx. 0.275 × 10^6 cells/ml. […] Plating medium was replaced by 315 µl or 108 µl assay media (MHM, […] Cell Culture Technology GmbH, Germany), after which conjugates were added from a 10x concentrated stock solution in PBS."}, "[2]": {"tested_on": "human primary hepatocytes (ASGPR1+)", "assay": "Cell viability assay on human primary hepatocytes", "details": "+ RNAiMAX", "procedure": "(§2) ApoBBNA (ApoBBNA#01, targeting human ApoB mRNA) was conjugated to trivalent-GalNAc ((GalNAc)3) (FIG. 6) and primary hepatocytes (ASGPR1^+) cells were treated with a range of concentrations of (GalNAc)3-ApoBBNA#01 with and without addition of 2000 nM SO1861. ApoB gene silencing in primary hepatocytes (ASGPR1^+) cells was determined.\n(§3) ApoB gene silencing in primary hepatocytes (ASGPR1^+) cells was determined. […] The dotted line in the ApoBBNA#02 RNAiMAX indicates concentrations at which toxicity and cell death occurs.\nBriefly, the MTS solution was diluted 20× in DMEM without phenol red (PAN-Biotech GmbH) supplemented with 10% FBS. The cells were washed once with 200 µL/PBS well, after which 100 µL diluted MTS solution was added/well. The plate was incubated for approximately 20-30 minutes at 37° C. Subsequently, the OD at 492 nm was measured on a Thermo Scientific Multiskan FC plate reader (Thermo Scientific)."}, "[3]": {"tested_on": "ApoB", "assay": "ApoB RNA expression analysis in human primary hepatocytes", "details": "read-out: IC50 ApoB gene silencing", "procedure": "as §2, §3, §1"}}, "note": "[BNANC] = BNA^NC bridged nucleic acid nucleoside; {ThiolC6} = thiol C6 linker; d = 2'-deoxy (DNA)"}
{"substance": "ApoBBNA#02: murine and human sequence-compatible ApoB BNA^NC oligonucleotide 5′-GCattggtatTCA-3′ [SEQ ID NO: 12], fully phosphorothioated (antisense GCATTGGTATTCA; sugars from the 5' end [BNANC]2 d8 [BNANC]3, all phosphorothioate, 5' {ThiolC6}, methylation of C not given here)", "values": [{"measurement": "fold less potent in ApoB RNA downmodulation than (GalNAc)3-ApoB#02 BNA + 2000 nM SO1861-EMCH", "setting": "[1]", "result": "100 - 667 fold"}, {"measurement": "IC50", "setting": "[1]; alone, without SO1861-EMCH, read-out: IC50 ApoB RNA expression inhibition", "result": 20, "unit": "nM"}, {"measurement": "IC50", "setting": "[2]", "result": 100, "unit": "nM"}, {"measurement": "IC50", "setting": "[3]; RNAiMAX transfection", "result": 5, "unit": "nM"}, {"measurement": "IC50", "setting": "[3]; alone, without SO1861-EMCH", "result": 200, "unit": "nM"}]}
